# Source: paper PMC9669016, “First-in-human phase Ia study of the PI3Kα inhibitor CYH33 in patients with solid tumors” (Nature Communications, 2022)
# Tests used:
# CYP2C8 = system: CYP2C8; set-up: method as in Investigator's Brochure (IB) 12; settings: up to 100 µM; ref Investigator's Brochure (IB) 12; cited from earlier work
# CYP2C19 = system: CYP2C19; set-up: method as in Investigator's Brochure (IB) 12; settings: up to 100 µM; ref Investigator's Brochure (IB) 12; cited from earlier work
# mice bone marrow = system: mice bone marrow; set-up: method as in Investigator's Brochure (IB) 12; settings: ref Investigator's Brochure (IB) 12; cited from earlier work
# CYP3A4 = system: CYP3A4; set-up: method as in Investigator's Brochure (IB) 12; settings: up to 100 µM; ref Investigator's Brochure (IB) 12; cited from earlier work
# pregnant rats = system: pregnant rats; set-up: method as in Investigator's Brochure (IB) 12; settings: ref Investigator's Brochure (IB) 12; cited from earlier work
# [1] = system: EC074 esophageal cancer PDX; set-up: method as in Investigator's Brochure (IB) 12; settings: 25 mg/kg oral for 21 days; ref Investigator's Brochure (IB) 12; cited from earlier work
# [2] = system: EC104 esophageal cancer PDX; set-up: method as in Investigator's Brochure (IB) 12; settings: 12.5 mg/kg oral for 21 days; ref Investigator's Brochure (IB) 12; cited from earlier work
# SD rats = test: Long-term toxicity assay, SD rats; type: in vivo; settings: 3 mg/kg x 0.162 x 60 kg
# Excerpt: Shanghai Haihe Biopharma Co., Ltd. Protocol No.: CYH33-101, Version: 5.0 […]
# in hepatocytes was sign ificantly higher in dogs than in other species. The extent of hydrolytic metabolism of amide bonds in monk ey hepatocytes was low, but the extent of oxidative metabolism (M5, M6) was higher than that in other animal species. Oxidative metabolites of CYH33 were not detected in hum an hepatocytes, so th e metabolic effect of oxidative metabolic enzymes in human liver on C YH33 was not evaluated. The liver and intestine homogenates of dogs were collected, confirming that the amide hydrolysis of CYH33 was mainly catalyzed by carboxylesterase in liver. […]
# transport across Caco-2 cells in the concentration range of 2.00 - 10.0 µM.
# For detailed results of nonclinical pharmacokinetic and product metabol ism studies of […]
# 1.2.3 Results of Nonclinical Toxicological Study […]
# tidal volume (TV), respiratory volume (MV) per minute and frequency of respiration (Rf) […]
# on the central n ervous system (CNS) noticed.
# The acute toxicity assay confirmed that the MTD was ≥ 600 mg/kg in SD rats, and the maximum tolerated dose (MTD) was >120 mg/kg in beagle dogs. The long-term toxicity […]
# were greater than those in males, and the highest non-severely toxic dose (HNSTD) was 8 mg/kg in males and 3 mg/kg in females. […]
smiles,measurement,setting,value
"COC(=O)Nc1cc(C(F)(F)F)c(-c2nc(N3CCOCC3)c3cc(CN4CCN(S(C)(=O)=O)CC4)cn3n2)cn1 [CYH33, methyl (5-(6-((4-(methylsulfonyl)piperazin-1-yl)methyl)−4-morpholinopyrrolo[2,1-f][1,2,4]triazin-2-yl)−4-(trifluoromethyl)pyridin-2-yl)carbamate]",inhibition of CYP2C8,CYP2C8,did not inhibit
same,inhibition of CYP2C19,CYP2C19,did not inhibit
same,mice bone marrow micronucleus test result,mice bone marrow,negative
same,inhibition of CYP3A4,CYP3A4,did not inhibit
same,no-observed-adverse-effect level (NOAEL) for embryo-fetal development,pregnant rats,0.10 mg/kg
same,T/C ratio,[1],36.78%
same,T/C ratio,[2],approximately 30%
same,"human equivalent dose (HED) of long-term HNSTD of rats (females), critical toxic dose",SD rats,about 30 mg
